Measured values: ChEMBL document CHEMBL1926619, “Structure and in vitro antiparasitic activity of constituents of Citropsis articulata root bark” (J Nat Prod, 2011)
Values after ≈ are worked out from the molar mass of the structure shown.

What was measured:
[1] = tested on: Plasmodium falciparum; test: microbe, parasite or virus in culture; assay type: functional, organism-based; settings: FcB1/Columbia
Description: Antiplasmodial activity against chloroquine-resistant Plasmodium falciparum FcB1/Colombia infected in human A+ve erythrocytes assessed as inhibition of [G-3H]hypoxanthine uptake preincubated for 24 hrs prior to [G-3H]hypoxanthine addition measured after 18 hrs by liquid scintillation counting

[2] = tested on: Leishmania donovani; test: Antileishmanial activity against Leishmania donovani MHOM/ET/L82/LV9 promastigotes after 3 days by MTT assay; assay type: functional, organism-based; settings: MHOM/ET/L82/LV9, 72 h
[3] = tested on: Trypanosoma brucei brucei; test: Antitrypanosomal activity against Trypanosoma brucei brucei; assay type: functional, organism-based
[4] = tested on: Vero; test: Cytotoxicity against african green monkey Vero cells; assay type: ADME, cell-based; settings: Chlorocebus sabaeus
[5] = Selectivity index, ratio of IC50 for african green monkey Vero cells to IC50 for chloroquine-resistant Plasmodium falciparum FcB1/Colombia; assay type: toxicity, cell-based; settings: read-out: Ratio IC50

| Structure (SMILES) | IC50 [1] | EC50 [2] | EC50 [3] | IC50 [4] | selectivity ratio [5] |
| --- | --- | --- | --- | --- | --- |
| COc1cc2c(c(O)c1OC)c(=O)c1cccc(O)c1n2C | 3 µg/mL (≈ 9.96 µM) | 20.4 µg/mL (≈ 67.7 µM) | 125 µg/mL (≈ 415 µM) | 30.5 µg/mL (≈ 101 µM) | 10 |
| CC(=O)O[C@@H]1C[C@H]2C(C)(C)OC(=O)C=C[C@]2(C)[C@H]2CC[C@@]3(C)[C@H](c4ccoc4)OC(=O)[C@H]4O[C@]43[C@@]21C | 9.3 µg/mL (≈ 18.7 µM) | 45 µg/mL (≈ 90.3 µM) | > 125 µg/mL | > 50 µg/mL | – |
| Cn1c2c(O)cccc2c(=O)c2c(O)cc3c(c21)C=CC(C)(C)O3 | 0.9 µg/mL (≈ 2.78 µM) | 11.2 µg/mL (≈ 34.6 µM) | 125 µg/mL (≈ 387 µM) | 9.3 µg/mL (≈ 28.8 µM) | 10 |
| CC[C@@]1(O)C(=O)OCc2c1cc1n(c2=O)Cc2cc3ccccc3nc2-1 [CAMPTOTHECIN] | – | – | – | 0.6 µg/mL (≈ 1.72 µM) | – |
| NCCS[As](SCCN)c1ccc(Nc2nc(N)nc(N)n2)cc1 [CYMELARSEN] | – | – | 1 µg/mL | – | – |
| CC(C)=CCc1cc2ccc(=O)oc2cc1O [DEMETHYLSUBEROSIN] | 16.7 µg/mL (≈ 72.5 µM) | 120 µg/mL (≈ 521 µM) | > 125 µg/mL | > 50 µg/mL | – |
| COc1cc2ccc(=O)oc2cc1O[C@@H]1O[C@H](CO[C@@H]2O[C@@H](C)[C@H](O)[C@@H](O)[C@H]2O)[C@@H](O)[C@H](O)[C@H]1O [HAPLOPEROSIDE] | > 100 µg/mL | > 125 µg/mL | > 125 µg/mL | > 50 µg/mL | – |
| C[C@@H]1O[C@@H](O[C@H]2[C@H](Oc3cc(=O)n(C)c4ccccc34)O[C@H](CO)[C@@H](O)[C@@H]2O)[C@H](O)[C@H](O)[C@H]1O [KATIMBORINE] | > 100 µg/mL | > 125 µg/mL | > 125 µg/mL | > 50 µg/mL | – |
| CC1(C)C=Cc2c(ccc(CCC(=O)O)c2O[C@@H]2O[C@H](CO[C@@H]3O[C@H](CO)[C@@H](O)[C@H](O)[C@H]3O)[C@@H](O)[C@H](O)[C@H]2O)O1 [OMUBIOSIDE] | > 100 µg/mL | > 125 µg/mL | > 125 µg/mL | > 50 µg/mL | – |
| N=C(N)c1ccc(OCCCCCOc2ccc(C(=N)N)cc2)cc1 [PENTAMIDINE] | – | 3.1 µg/mL (≈ 9.11 µM) | 1.4 µg/mL (≈ 4.11 µM) | – | – |
| CC1(C)C=Cc2c(ccc3ccc(=O)oc23)O1 [SESALIN] | > 100 µg/mL | > 125 µg/mL | > 125 µg/mL | > 50 µg/mL | – |
| COc1cc2oc(=O)ccc2cc1CC=C(C)C [SUBEROSIN] | > 100 µg/mL | > 125 µg/mL | > 125 µg/mL | > 50 µg/mL | – |
| C[n+]1cccc(C(=O)[O-])c1.Cl [TRIGONELLINE HYDROCHLORIDE] | > 100 µg/mL | > 125 µg/mL | > 125 µg/mL | > 50 µg/mL | – |
